Test results taken from ChEMBL document CHEMBL5291721, “A preclinical secondary pharmacology resource illuminates target-adverse drug reaction associations of marketed drugs” (Nat Commun, 2023).

What was measured:
[1] = molecular target: T1, Muscarinic acetylcholine receptor M1 (Homo sapiens, UniProt P11229)
T1 sequence (P11229 whole entry): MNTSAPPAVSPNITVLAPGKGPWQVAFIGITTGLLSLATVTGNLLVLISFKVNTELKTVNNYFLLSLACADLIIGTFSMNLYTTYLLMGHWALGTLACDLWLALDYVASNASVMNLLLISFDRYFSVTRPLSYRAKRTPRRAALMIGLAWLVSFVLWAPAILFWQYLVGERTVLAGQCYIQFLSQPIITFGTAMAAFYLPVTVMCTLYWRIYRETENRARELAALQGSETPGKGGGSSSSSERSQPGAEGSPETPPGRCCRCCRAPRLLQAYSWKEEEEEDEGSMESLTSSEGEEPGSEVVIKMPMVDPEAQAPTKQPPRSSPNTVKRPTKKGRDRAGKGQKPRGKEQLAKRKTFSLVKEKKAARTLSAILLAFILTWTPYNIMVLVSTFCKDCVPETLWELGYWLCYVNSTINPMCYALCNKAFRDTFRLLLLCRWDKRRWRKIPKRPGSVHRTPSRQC

[2] = molecular target: T2, Alpha-1A adrenergic receptor (Homo sapiens, UniProt P35348)
T2 sequence (P35348 whole entry): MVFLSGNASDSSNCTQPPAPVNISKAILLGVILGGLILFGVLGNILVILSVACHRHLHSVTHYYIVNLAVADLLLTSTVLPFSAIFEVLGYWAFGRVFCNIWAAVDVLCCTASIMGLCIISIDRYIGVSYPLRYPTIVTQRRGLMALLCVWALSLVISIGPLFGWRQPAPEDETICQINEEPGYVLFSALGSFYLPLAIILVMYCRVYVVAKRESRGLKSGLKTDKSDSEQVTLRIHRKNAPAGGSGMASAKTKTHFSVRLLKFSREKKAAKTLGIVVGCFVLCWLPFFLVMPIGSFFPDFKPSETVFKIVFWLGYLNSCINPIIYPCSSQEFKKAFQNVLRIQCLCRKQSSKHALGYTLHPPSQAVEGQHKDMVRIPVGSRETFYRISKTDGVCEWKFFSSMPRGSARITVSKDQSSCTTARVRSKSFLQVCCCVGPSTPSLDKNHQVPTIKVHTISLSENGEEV

[3] = molecular target: D(1A) dopamine receptor (Homo sapiens, UniProt P21728)
Chain of D(1A) dopamine receptor (P21728 whole entry): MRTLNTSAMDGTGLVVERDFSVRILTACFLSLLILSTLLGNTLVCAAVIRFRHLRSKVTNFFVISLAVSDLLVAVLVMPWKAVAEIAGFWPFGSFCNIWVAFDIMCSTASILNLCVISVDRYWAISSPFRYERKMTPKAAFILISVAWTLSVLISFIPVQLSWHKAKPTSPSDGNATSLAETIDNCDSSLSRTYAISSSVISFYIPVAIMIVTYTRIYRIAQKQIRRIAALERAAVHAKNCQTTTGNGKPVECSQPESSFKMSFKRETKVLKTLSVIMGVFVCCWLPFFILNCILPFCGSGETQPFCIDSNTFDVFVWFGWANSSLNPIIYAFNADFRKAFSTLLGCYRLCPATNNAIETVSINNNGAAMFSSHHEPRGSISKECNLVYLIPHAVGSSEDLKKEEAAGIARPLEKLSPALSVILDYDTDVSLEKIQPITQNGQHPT

[4] = molecular target: T3, Muscarinic acetylcholine receptor M2 (Homo sapiens, UniProt P08172)
T3 sequence (P08172 whole entry): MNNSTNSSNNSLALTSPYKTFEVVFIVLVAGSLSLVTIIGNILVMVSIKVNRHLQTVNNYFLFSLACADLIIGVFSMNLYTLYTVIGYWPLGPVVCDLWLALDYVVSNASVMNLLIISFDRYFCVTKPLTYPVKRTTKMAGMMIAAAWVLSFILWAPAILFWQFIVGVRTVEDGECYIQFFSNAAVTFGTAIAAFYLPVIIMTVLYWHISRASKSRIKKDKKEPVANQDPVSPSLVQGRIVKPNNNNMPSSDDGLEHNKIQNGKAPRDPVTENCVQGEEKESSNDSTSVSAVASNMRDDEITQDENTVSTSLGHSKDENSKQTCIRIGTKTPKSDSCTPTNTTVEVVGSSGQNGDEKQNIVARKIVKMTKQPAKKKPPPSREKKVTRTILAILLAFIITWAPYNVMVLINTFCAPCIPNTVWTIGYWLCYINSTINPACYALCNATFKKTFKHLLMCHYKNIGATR

[5] = molecular target: Voltage-dependent N-type calcium channel subunit alpha-1B (Rattus norvegicus, UniProt Q02294); type: functional
Chain of Voltage-dependent N-type calcium channel subunit alpha-1B (Q02294 whole entry): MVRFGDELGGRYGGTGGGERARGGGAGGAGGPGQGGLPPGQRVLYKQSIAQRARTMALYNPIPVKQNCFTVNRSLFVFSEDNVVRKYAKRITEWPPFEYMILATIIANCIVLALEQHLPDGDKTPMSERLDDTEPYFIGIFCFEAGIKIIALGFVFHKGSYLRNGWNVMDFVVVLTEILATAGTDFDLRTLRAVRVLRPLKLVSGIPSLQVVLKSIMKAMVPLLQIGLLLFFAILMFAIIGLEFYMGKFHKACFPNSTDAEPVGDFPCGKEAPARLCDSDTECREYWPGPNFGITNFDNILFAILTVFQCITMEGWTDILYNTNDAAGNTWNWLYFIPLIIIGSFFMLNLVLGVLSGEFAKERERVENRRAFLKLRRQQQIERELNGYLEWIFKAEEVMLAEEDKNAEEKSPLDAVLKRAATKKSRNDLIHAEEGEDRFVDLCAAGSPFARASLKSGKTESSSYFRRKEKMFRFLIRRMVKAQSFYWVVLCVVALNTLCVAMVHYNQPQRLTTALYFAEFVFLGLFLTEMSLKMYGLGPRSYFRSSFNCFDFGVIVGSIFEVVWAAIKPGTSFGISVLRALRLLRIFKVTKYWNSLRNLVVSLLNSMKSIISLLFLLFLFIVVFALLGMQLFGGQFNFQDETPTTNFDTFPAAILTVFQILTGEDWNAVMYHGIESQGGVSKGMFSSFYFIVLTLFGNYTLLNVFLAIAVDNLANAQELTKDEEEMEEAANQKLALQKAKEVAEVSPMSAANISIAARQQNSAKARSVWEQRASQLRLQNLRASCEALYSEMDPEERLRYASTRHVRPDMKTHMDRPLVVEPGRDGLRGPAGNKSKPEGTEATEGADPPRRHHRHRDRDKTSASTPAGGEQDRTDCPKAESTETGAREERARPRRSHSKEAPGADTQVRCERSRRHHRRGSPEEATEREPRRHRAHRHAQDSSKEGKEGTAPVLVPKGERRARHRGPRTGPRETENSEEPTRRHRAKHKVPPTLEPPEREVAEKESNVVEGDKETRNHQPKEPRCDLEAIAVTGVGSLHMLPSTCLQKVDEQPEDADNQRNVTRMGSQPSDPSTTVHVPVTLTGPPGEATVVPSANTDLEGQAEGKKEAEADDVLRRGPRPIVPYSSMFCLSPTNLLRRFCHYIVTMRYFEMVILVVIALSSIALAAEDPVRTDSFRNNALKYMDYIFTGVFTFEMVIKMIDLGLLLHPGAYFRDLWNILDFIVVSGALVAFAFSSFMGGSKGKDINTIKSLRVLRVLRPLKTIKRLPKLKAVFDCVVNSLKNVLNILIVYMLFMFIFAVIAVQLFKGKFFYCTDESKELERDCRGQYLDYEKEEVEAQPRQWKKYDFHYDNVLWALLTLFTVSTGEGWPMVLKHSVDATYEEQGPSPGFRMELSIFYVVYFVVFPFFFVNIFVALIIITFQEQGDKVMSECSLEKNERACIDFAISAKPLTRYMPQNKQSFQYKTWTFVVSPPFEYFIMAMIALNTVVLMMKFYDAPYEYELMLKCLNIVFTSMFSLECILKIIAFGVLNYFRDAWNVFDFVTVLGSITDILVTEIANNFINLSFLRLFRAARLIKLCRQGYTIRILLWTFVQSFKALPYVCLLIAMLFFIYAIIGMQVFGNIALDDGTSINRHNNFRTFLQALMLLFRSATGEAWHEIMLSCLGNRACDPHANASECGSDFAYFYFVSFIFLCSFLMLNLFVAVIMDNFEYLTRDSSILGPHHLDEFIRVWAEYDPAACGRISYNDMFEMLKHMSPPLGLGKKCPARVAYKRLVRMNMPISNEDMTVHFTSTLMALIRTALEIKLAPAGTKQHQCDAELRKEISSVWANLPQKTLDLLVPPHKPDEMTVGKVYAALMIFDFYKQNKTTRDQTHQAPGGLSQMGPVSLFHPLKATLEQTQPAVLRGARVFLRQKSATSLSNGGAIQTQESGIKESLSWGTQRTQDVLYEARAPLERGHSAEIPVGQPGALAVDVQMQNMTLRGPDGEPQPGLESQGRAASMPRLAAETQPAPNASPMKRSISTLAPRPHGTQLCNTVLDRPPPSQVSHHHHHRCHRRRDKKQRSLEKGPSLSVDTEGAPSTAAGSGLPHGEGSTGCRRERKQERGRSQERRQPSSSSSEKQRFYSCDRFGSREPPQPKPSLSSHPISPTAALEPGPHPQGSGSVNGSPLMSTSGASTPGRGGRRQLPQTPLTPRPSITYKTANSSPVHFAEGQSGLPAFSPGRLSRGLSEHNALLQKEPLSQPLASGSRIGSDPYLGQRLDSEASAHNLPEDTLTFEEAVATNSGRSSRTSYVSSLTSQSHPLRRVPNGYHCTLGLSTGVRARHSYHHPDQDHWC

[6] = molecular target: T4, Gamma-aminobutyric acid receptor subunit alpha-1/alpha-2/beta-2/gamma-2 (Homo sapiens, UniProt P14867+P18507+P47869+P47870); type: functional, cell-based
T4 sequence (P14867 whole entry): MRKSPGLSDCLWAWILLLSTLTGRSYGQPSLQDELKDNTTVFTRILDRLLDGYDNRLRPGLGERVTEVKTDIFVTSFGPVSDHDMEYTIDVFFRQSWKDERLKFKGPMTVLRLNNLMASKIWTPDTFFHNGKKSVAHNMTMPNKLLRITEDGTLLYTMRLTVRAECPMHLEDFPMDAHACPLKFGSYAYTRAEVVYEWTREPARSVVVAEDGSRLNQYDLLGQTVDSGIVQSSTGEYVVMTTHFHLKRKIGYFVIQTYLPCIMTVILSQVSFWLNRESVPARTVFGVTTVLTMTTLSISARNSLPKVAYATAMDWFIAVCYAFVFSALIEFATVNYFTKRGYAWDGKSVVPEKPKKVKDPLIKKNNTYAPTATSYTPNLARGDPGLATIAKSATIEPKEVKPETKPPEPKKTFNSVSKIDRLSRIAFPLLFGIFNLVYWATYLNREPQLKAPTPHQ
T4 sequence (P47870 whole entry): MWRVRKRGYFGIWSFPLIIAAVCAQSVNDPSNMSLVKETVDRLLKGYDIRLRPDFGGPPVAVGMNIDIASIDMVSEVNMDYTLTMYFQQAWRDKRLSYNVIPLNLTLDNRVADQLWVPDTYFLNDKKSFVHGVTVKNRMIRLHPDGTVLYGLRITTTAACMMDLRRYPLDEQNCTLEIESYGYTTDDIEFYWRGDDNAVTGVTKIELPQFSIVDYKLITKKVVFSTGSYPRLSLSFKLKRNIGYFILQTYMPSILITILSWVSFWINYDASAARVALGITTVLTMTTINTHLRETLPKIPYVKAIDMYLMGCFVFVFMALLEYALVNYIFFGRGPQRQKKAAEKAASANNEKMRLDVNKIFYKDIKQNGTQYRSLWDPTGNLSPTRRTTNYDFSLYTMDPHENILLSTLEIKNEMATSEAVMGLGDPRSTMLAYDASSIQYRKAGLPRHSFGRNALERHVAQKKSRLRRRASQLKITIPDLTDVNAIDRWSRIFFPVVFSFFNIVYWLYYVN
T4 sequence (P18507 whole entry): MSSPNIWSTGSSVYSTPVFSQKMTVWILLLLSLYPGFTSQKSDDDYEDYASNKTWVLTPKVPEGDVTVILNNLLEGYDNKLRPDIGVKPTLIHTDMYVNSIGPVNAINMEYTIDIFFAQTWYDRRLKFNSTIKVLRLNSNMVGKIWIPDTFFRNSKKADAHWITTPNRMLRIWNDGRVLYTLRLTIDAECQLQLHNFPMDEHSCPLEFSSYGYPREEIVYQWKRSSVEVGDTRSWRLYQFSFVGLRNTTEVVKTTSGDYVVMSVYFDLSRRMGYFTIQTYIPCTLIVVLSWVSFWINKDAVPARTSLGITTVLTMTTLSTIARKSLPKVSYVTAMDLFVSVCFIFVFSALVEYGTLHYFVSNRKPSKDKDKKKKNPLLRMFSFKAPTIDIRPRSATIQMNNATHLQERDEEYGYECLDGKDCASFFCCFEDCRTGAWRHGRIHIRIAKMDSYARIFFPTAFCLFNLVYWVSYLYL
T4 sequence (P47869 whole entry): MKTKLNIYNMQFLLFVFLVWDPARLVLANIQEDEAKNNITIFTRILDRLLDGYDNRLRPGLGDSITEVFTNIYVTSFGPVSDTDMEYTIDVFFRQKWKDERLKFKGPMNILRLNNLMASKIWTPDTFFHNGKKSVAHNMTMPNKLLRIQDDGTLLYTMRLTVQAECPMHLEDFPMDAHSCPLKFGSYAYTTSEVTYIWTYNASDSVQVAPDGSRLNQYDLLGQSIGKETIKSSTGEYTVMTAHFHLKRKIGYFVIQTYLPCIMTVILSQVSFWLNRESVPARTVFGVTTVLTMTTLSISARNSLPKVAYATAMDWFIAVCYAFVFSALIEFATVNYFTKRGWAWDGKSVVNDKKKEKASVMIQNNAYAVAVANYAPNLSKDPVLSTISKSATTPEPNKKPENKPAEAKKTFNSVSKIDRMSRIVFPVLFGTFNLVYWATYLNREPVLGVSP

[7] = molecular target: T4, Gamma-aminobutyric acid receptor subunit alpha-1/alpha-2/beta-2/gamma-2; type: functional, cell-based; remark: listed apart in the source
[8] = molecular target: T5, Peroxisome proliferator-activated receptor gamma (Homo sapiens, UniProt P37231); type: functional
T5 sequence (P37231 whole entry): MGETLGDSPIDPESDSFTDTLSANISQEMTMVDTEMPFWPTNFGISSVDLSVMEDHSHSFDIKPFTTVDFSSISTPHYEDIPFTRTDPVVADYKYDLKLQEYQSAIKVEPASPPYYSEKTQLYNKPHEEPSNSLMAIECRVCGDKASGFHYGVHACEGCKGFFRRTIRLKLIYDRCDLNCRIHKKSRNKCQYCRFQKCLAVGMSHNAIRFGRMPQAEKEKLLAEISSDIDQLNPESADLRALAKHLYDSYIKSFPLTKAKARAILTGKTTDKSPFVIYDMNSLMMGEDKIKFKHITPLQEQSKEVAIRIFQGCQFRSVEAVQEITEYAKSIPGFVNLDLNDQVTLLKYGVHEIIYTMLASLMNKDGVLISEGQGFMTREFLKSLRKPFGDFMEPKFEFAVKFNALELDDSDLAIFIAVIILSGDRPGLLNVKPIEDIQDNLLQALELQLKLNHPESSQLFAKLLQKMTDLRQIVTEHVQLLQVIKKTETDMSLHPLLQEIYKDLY

[9] = molecular target: T5, Peroxisome proliferator-activated receptor gamma; type: functional; remark: listed apart in the source
[10] = molecular target: 5-hydroxytryptamine receptor 2B (Homo sapiens, UniProt P41595)
[11] = molecular target: Histamine H1 receptor (Homo sapiens, UniProt P35367); type: functional, cell-based
Note: assay procedure not described here.

**Q.** For `CC(=O)Nc1ccc(/C=N/NC(N)=S)cc1` [AMITHIOZONE], which AC50 [1] is on record?
**A.** > 30 µM

**Q.** And the AC50 [2]?
**A.** > 30 µM

**Q.** And the AC50 [3]?
**A.** > 30 µM

**Q.** `CC(=O)OC1CN2CCC1CC2` (stereo not given) [ACECLIDINE] was tested. Which AC50 [2] did it give?
**A.** > 30 µM

**Q.** And the AC50 [3]?
**A.** > 30 µM

**Q.** How did the AC50 [4] turn out when `C[C@]12C=CC(=O)C=C1CC[C@@H]1[C@@H]2[C@@H](O)C[C@@]2(C)[C@H]1CC[C@]2(O)C(=O)CO` [PREDNISOLONE] was run?
**A.** > 10 µM

**Q.** And the AC50 [5]?
**A.** > 10 µM

**Q.** How did the AC50 [4] turn out when `CCC(=O)c1ccc2c(c1)N(CC(C)N(C)C)c1ccccc1S2` (stereo not given) [PROPIOMAZINE] was run?
**A.** 0.265 µM

**Q.** What does the source list for `CC(C)(C)NCC(O)COc1ccccc1C#N` (stereo not given) [BUNITROLOL]?
**A.** AC50 [6]: > 30 µM; AC50 [7]: > 30 µM

**Q.** Which results are given for `COc1cccc2c1C(=O)c1c(O)c3c(c(O)c1C2=O)C[C@@](O)(C(=O)CO)C[C@@H]3O[C@H]1C[C@H](N)[C@H](O)[C@H](C)O1` [DOXORUBICIN]?
**A.** AC50 [8]: > 10 µM; AC50 [5]: > 10 µM; AC50 [9]: > 30 µM

**Q.** How did the AC50 [6] turn out when `COc1ccc(C(=O)c2ccccc2)c(O)c1` [OXYBENZONE] was run?
**A.** > 30 µM

**Q.** And the AC50 [7]?
**A.** > 30 µM

**Q.** How did the AC50 [1] turn out when `C[C@@H](O)[C@H]1C(=O)N2C(C(=O)O)=C(S[C@@H]3CN[C@H](C(=O)Nc4cccc(C(=O)O)c4)C3)[C@H](C)[C@H]12` was run?
**A.** > 30 µM

**Q.** And the AC50 [2]?
**A.** > 30 µM

**Q.** What about the AC50 [3] of the same compound?
**A.** > 30 µM

**Q.** Which AC50 [10] does the source give for `C[C@]12CCC(=O)C=C1[C@@H]1C[C@@H]1[C@H]1[C@@H]3[C@@H]4C[C@@H]4[C@@]4(CCC(=O)O4)[C@@]3(C)CC[C@@H]12` [DROSPIRENONE] here?
**A.** > 30 µM

**Q.** How did the AC50 [5] turn out when `Cc1ccc(O)c([C@H](CCN(C(C)C)C(C)C)c2ccccc2)c1` [TOLTERODINE] was run?
**A.** > 10 µM

**Q.** And the AC50 [10]?
**A.** > 10 µM

**Q.** Which AC50 [4] does the source give for `N=C(N)NC(=O)c1nc(Cl)c(N)nc1N` [AMILORIDE] here?
**A.** > 10 µM

**Q.** And the AC50 [5]?
**A.** > 10 µM

**Q.** What about the AC50 [10] of the same compound?
**A.** 5.63 µM

**Q.** For `Oc1cc(Cl)ccc1Oc1ccc(Cl)cc1Cl` [TRICLOSAN], which AC50 [11] is on record?
**A.** > 30 µM

**Q.** What about the AC50 [6] of the same compound?
**A.** > 30 µM

**Q.** What about the AC50 [7] of the same compound?
**A.** > 30 µM

**Q.** Which results are given for `C[C@]12C=CC(=O)C=C1C(Cl)=C[C@@H]1[C@@H]2[C@@H](O)C[C@@]2(C)[C@H]1CC[C@]2(O)C(=O)CO` [CLOPREDNOL]?
**A.** AC50 [11]: > 30 µM; AC50 [6]: > 30 µM; AC50 [8]: > 30 µM; AC50 [9]: > 30 µM

**Q.** For `CCn1c(=O)c2c(nc(/C=C/c3ccc(OC)c(OC)c3)n2C)n(CC)c1=O` [ISTRADEFYLLINE], which AC50 [11] is on record?
**A.** > 30 µM

**Q.** How did the AC50 [8] turn out when `CC(C)(Oc1ccc(Cl)cc1)C(=O)OCCOC(=O)c1cccnc1` [ETOFIBRATE] was run?
**A.** > 30 µM

**Q.** What about the AC50 [9] of the same compound?
**A.** > 30 µM

**Q.** Which results are given for `OC(CN1CCCCC1)c1cc(-c2ccccc2)on1` (stereo not given) [PERISOXAL]?
**A.** AC50 [1]: 20.4 µM; AC50 [2]: 3.86 µM; AC50 [3]: > 30 µM

**Q.** How did the AC50 [1] turn out when `CSCC[C@H](N)C(=O)O` [METHIONINE] was run?
**A.** > 30 µM

**Q.** And the AC50 [2]?
**A.** > 30 µM

**Q.** And the AC50 [3]?
**A.** > 30 µM
